In brackets after ≈: the same amount, converted by molar mass. Several values for one entry are separate records, joined by “and”; a condition that tells them apart may be missing. Equal values may be shown once. Entries after “also recorded” stand apart in the source; their conditions may differ.

The subject of series [1] is human fecal microbiota. How it is done: Fecal slurries from neurologically healthy human donors or Parkinson's patients were prepared as described in the ‘enrichment culturing’ section above. These slurries were diluted to a final volume of 300 μL in 20% glycerol and then aliquoted into individual tubes, flash-frozen in liquid nitrogen and stored at −80° C., allowing for experiments to be repeated with the same fecal sample multiple times without freeze-thawing.

A short description of series [2]: Pharmacokinetic experiment in gnotobiotic mice colonized with E. faecalis MMH594. Format: in vivo. To be noted: L-dopa+carbidopa+AFMT.
Series [3] deals with HeLa cells. Description: MTS/MTT assay for HeLa cell viability in the presence of AFMT. Format: cell-based. To be noted: two days treatment. How it is done:
HeLa cells were seeded in 100 μL growth medium [(DMEM medium supplemented with 10% FBS (2 mL) and 1× Antibiotic-Antimycotic (100× stock, Invitrogen))] and incubated at 37° C. in 5% CO2 incubator for 1 day. Wells containing growth medium only were used as background controls. Cells were treated with various concentrations of AFMT in quadruplicate. Two days post treatment, 20 μL of CellTiter 96® AQueous One Solution Reagent (Promega) was added to each well. The plates were incubated at 37° C. in 5% CO2 incubator for 2 hours followed by absorbance measurement at 490 nm. To calculate relative cell viability, the readings for each compound concentration were subtracted from the background controls and normalized to vehicle controls.
HeLa cells were seeded into 96-well plates at a density of 1×10^5 cells per well in 100 μL of growth medium [(DMEM medium supplemented with 10% FBS (2 mL) and 1× Antibiotic-Antimycotic (100× stock, Invitrogen))] and incubated at 37° C. in a 5% CO2 incubator for 1 day. Wells containing growth medium only were used as background controls. Cells were treated with various concentrations of AFMT in quadruplicate. […] To calculate relative cell viability, the readings for each compound concentration were subtracted from the background controls and normalized to vehicle controls

The target of series [4] is T1, H. sapiens AADC (Homo sapiens, UniProt P20711).
T1 sequence (P20711 1-480): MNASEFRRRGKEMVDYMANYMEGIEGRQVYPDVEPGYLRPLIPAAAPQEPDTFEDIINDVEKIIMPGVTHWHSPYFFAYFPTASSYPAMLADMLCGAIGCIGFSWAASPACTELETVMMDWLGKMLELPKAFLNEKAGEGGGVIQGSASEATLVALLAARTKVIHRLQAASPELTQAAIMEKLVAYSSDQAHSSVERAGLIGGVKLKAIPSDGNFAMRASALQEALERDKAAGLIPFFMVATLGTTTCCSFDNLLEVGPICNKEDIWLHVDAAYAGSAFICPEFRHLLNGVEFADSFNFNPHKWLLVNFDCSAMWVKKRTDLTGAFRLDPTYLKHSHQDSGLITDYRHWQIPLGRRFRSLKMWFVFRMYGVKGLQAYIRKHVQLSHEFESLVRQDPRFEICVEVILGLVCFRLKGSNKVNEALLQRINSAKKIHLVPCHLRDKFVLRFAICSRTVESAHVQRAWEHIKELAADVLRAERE
Description: Inhibition of L-dopa decarboxylation by purified AADC (LC-MS/MS).

The target in series [5] is T2, E. faecalis TyrDC (Enterococcus faecalis, UniProt P0DTQ4).
T2 sequence (P0DTQ4 1-620): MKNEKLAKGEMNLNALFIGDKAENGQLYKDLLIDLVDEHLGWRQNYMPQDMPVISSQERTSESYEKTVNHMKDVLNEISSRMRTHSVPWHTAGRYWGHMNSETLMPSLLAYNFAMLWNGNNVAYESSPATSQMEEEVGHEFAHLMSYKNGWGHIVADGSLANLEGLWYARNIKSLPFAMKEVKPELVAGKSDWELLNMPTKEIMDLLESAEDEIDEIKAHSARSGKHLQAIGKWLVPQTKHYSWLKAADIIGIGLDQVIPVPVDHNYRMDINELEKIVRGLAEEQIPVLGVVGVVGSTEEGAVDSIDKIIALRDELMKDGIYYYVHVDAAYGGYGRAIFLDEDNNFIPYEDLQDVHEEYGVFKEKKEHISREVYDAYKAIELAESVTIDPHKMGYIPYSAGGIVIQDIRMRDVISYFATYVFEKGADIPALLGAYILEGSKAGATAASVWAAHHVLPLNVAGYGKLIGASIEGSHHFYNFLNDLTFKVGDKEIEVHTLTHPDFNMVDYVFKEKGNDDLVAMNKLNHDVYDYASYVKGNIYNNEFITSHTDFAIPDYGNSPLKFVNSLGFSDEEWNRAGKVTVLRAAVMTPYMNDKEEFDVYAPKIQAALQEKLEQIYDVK
The series is described as follows: Inhibition of L-dopa decarboxylation by purified TyrDC (LC-MS/MS). To be noted: for preferential inhibition, AADC vs TyrDC: FIG. 4 panels B and E, in vitro; for IC50: IC50, L-dopa decarboxylation by TyrDC, purified E. faecalis TyrDC, 500 μM L-dopa, pH 5.5, best-fit ± standard error, n=3.

Series [6] has as its target T3, TyrDC (Enterococcus faecalis, UniProt P0DTQ4).
T3 sequence (P0DTQ4 1-620): T2 sequence (P0DTQ4 1-620)
The series is described as follows: Identification of a PLP-inhibitor adduct upon incubation of enzymes with AFMT. Type of series: biochemical. The conditions noted are these: TyrDC or AADC incubated with AFMT for 1 hour. How it is done: The same buffers as described above were used for each enzyme. 10 μM AADC or TyrDC was incubated with 200 μM PLP and 50 μM AFMT for one hour at room temperature. The reactions were quenched by boiling at 95° C. for 15 minutes. This mix was diluted 1:20 in LC-MS grade methanol and spun down to pellet precipitates. The supernatant was analyzed by LC-MS using Method E described above. The predicted adduct was identified based on the work described in.

The nature of series [7]: Solubility limit noted in the inhibition assays. Format: physicochemical.
Series [8] deals with E. faecalis MMH594 cells. Description: L-dopa decarboxylation in anaerobic E. faecalis cultures with inhibitor.
The subject of series [9] is co-cultures of E. faecalis and E. lenta. The series is described as follows: L-dopa metabolism by co-cultures of E. faecalis and E. lenta with AFMT. To be noted: 125 μM AFMT, 1 mM d3-phenyl-L-dopa, 48 hours.
Description: E. faecalis MMH594 WT or tyrDC mutant or E. lenta A2 or E. lenta DSM2243 were grown anaerobically for 48 hours from single colonies in BHI medium at 37° C. These starter cultures were normalized to an OD600=0.1 by dilution into fresh BHI medium. […] Cultures were grown for 48 hours at 37° C. and harvested by centrifugation.
The target of series [10] is T2, E. faecalis TyrDC. The series is described as follows: Michaelis-Menten kinetics of E. faecalis TyrDC. The conditions noted are these: for Vmax / kcat: substrate of TyrDC, best-fit ± standard error, n=3.
Description: (§1) The enzyme reaction was then initiated by dissolving the preincubated enzyme-PLP mix 1:10 with substrate dissolved in 0.2 M sodium acetate buffer, pH 5.5. […] Aliquots of the enzyme reaction were quenched by diluting 10-fold into ice cold methanol at 20, 40, and 60 seconds after initiation. The quenched reaction was centrifuged to pellet precipitates and 5 μL of the supernatant was analyzed by LC-MS/MS using Method B described above. Rates were calculated as the substrate produced from 20 to 60 seconds and were fit to a standard Michaelis-Menten kinetics curve in Graphpad prism (version 7). All experiments were done in triplicate and were repeated at least twice. Reactions were performed at room temperature.
The conditions of series [11]: cited from earlier work.
For series [12], the system named is E. lenta A2. The series is described as follows: Anaerobic growth of E. lenta A2 in the presence of tungstate. Format: cell-based, Eggerthella lenta. The conditions noted are these: BHI medium, varying concentrations of tungstate.
The test system of series [13] is E. lenta A2. Description: Effect of tungstate on dopamine dehydroxylation in cultures of E. lenta A2. The conditions noted are these: 48 hours, 0.5 mM dopamine. Type of series: cell-based, Eggerthella lenta.
The test system of series [14] is E. lenta A2 cell lysates. Description: E. lenta A2 lysate assays with tungstate. Type of series: biochemical, Eggerthella lenta. The conditions noted are these: 500 μM dopamine, 12 hours, room temperature. As to the method: E. lenta A2 was grown either without or with 500 μM dopamine in BHI medium containing 1% (w/v) arginine and 10 mM formate. Cultures were spun down at OD600=0.500 and cell pellets were washed twice with anaerobic, sterile PBS to remove dopamine and any m-tyramine that had accumulated in the culture. Pellets were lysed anaerobically in 50 mM Tris pH 8 followed by addition of 500 μM dopamine (DA) to lysates. Lysates were left at room temperature for 12 hours and were analyzed for m-tyramine production by LC-MS/MS. Peak heights show the relative intensity of each mass and all chromatograms are shown on the same scale.
10 mL turbid 48-hour starter cultures of E. lenta A2 in BHI medium were diluted 1:100 into 20 mL BHI medium containing 1% arginine and 10 mM formate with or without 500 μM dopamine. Cells were pelleted by centrifugation when cultures reached OD600=0.500. Cell pellets were washed twice with PBS and were then re-suspended in 800 μL 50 mM Tris pH 8 containing 4 mg/mL […] protease inhibitor cocktail, followed by anaerobic sonication to lyse the cells. Dopamine was added to crude lysates at a final concentration of 500 μM and the reactions were left for 12 hours at room temperature under anaerobic conditions. […] Supernatant were analyzed by LC-MS/MS to measure dopamine and m-tyramine production using Method A described above. […]

Substrate in series [15]: N[C@@H](Cc1ccc(O)c(O)c1)C(=O)O
Description: purified protein, by the assay type. To be noted: other: substrate of TyrDC, pH 5.5.

Substrate in series [16]: N[C@@H](Cc1ccc(O)cc1)C(=O)O
Description: purified protein, by the assay type. The conditions noted are these: other: substrate of TyrDC; best-fit ± standard error, n=3; pH 5.5.
Description: as §1

[17] abbreviates: read-out: inhibition of AADC at solubility limit.

As for `N[C@@](CF)(Cc1ccc(O)cc1)C(=O)O` [AFMT], the “L-dopa decarboxylation in gut microbiota samples” value in series [1] (Parkinson's disease patients and neurologically healthy control subjects, 1 mM d3-phenyl-L-dopa, 72 hours) was “completely inhibited”. Moreover, the “serum L-dopa relative to vehicle controls” value in series [2] is listed as “higher”. The “toxicity to eukaryotic cells” value in series [3] is given as “non-toxic”. In series [4] (setting [17]), the inhibition at 650 µM is ~20% and the inhibition at 700 µM was found to be 20%. Further, in series [5], the “preferential inhibition, AADC vs TyrDC” value is recorded as “preferentially inhibits TyrDC over AADC”; the IC50 is 4.7 µM and 4.71 µM. Further, the “covalent PLP adduct formation” value in [6] is recorded as “formed a covalent PLP adduct only in the presence of TyrDC”. Besides, the solubility in series [7] (AADC inhibition assay mixture, AADC inhibition assay) is 650 µM (≈ 139 µg/mL). Also, the “fold outperforming carbidopa in E. faecalis cultures” value in series [8] (AFMT vs carbidopa) is 1000 fold. In addition, the 50% effective concentration (EC50) in [8] (Enterococcus faecalis, MMH594CELLS, read-out: EC50, L-dopa decarboxylation in E. faecalis cultures, E. faecalis MMH594 cells, 0.5 mM L-dopa, anaerobic) is 1.4 µM. Also, the “L-dopa decarboxylation by co-cultures of E. faecalis and E. lenta” value in series [9] was “reduced”.

`N[C@@H](Cc1ccc(O)c(O)c1)C(=O)O` [L-dopa]: in series [10], the maximal velocity (Vmax) is 5.553 ± 0.165 ^ μM/s and the kcat is 55.53 ± 2.98 ^ 1/s. For the same molecule, in series [11] (extensive pre-systemic metabolism in the gut), the “L-dopa reaching the brain” value is listed as 1-5%.

As to `N[C@@H](Cc1ccc(O)cc1)C(=O)O` [Tyrosine, L-tyrosine], in series [10] (TyrDC), the “fold higher catalytic efficiency compared to L-dopa” value is listed as 5 fold. Besides, in [10], the Vmax is 6.363 ± 0.102 µM/s and the kcat was determined as 63.63 ± 1.02 s⁻¹.

Take `C[C@@](Cc1ccc(O)c(O)c1)(NN)C(=O)O` [carbidopa]: the “kinetics of L-dopa degradation in stool samples” value in [1] (2 mM carbidopa, 1 mM d3-phenyl-L-dopa, 72 hours) was “did not alter”. The “endpoint m-tyramine production in stool samples” value in series [1] (2 mM carbidopa, Parkinson's patients and neurologically healthy controls) is recorded as “did not alter”. In series [4], this molecule came in with an IC50 of 0.21 µM. Besides, the “fold less active toward TyrDC relative to AADC” value in series [5] (E. faecalis TyrDC vs H. sapiens AADC) was 200 fold. Moreover, in series [5], the “preferential inhibition, AADC vs TyrDC” value is reported as “preferentially inhibits human amino acid decarboxylase (AADC) over TyrDC” and half-maximal inhibition (IC50) required 52 µM. Further, the solubility in series [7] (E. faecalis cultures, plasma or biological fluid) turned out to be 2000 µM (≈ 452 µg/mL). Moreover, in [8] (Enterococcus faecalis, MMH594CELLS, read-out: inhibition of L-dopa decarboxylation by E. faecalis cultures, at solubility limit of 2 mM), the inhibition at 2000 µM was ~50%. The “inhibition of L-dopa decarboxylation by E. faecalis cultures” value in series [8] (at solubility limit of 2 mM) came out at 50% inhibition at. Further, in series [11] (carbidopa administration, previous findings), the “m-tyramine production in patients” value is recorded as “does not impact”.

As to `[Na+].[Na+].[O]=[W](=[O])([O-])[O-]` [tungstate, Sodium tungstate], the “growth of E. lenta A2” value in [12] is listed as “without affecting growth; also recorded: no obvious dose-dependent growth defect”. In addition, the “dopamine dehydroxylation by E. lenta A2 cultures” value in series [13] was “inhibits”. Also, in series [14], the “dopamine dehydroxylation by E. lenta A2 cell lysates” value was “had no effect; also recorded: no dose-dependent effect”.

B1: E. faecalis TyrDC (Enterococcus faecalis EnGen0310 = MMH594) (protein)
chain: T2 sequence (P0DTQ4 1-620)
B1: the Km in series [15] (best-fit ± standard error, n=3) is 1475 ± 79.28 ^ μM; in series [15], 1.5 mM; in series [16], 314.9 ± 15.5 µM.

Values taken from patent US20220226269A1, “METHODS AND COMPOSITIONS FOR MODULATION OF AN INTERSPECIES GUT BACTERIAL PATHWAY FOR LEVODOPA METABOLISM” (President and Fellows of Harvard College, priority 2019, published 2022).
